Results taken from PubChem BioAssay (NCI).
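Results reflect a 48-hour exposure of cells in 96-well plates to compound at five concentrations. GI50 is the concentration that inhibits growth by half. The concentration for full growth arrest is given as TGI.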

Experiments:
Experiment in all cases: NCI-60 cell line screen, 48 h; in the data active means GI50 below about 0.43 µM; inactive means the rest
[1] = test system: OVCAR-3 ovarian
[2] = test system: HOP-92 NSCLC
[3] = test system: SW-620 colon
[4] = test system: CCRF-CEM leukemia
[5] = test system: XF 498 CNS
[6] = test system: NCI-H226 lung
[7] = test system: CAKI-1 renal
[8] = test system: M19-MEL melanoma
[9] = test system: SK-OV-3 ovarian
[10] = test system: UACC-257 melanoma
[11] = test system: SF-539 CNS
[12] = test system: TK-10 renal
[13] = test system: K-562 leukemia
[14] = test system: A498 renal
[15] = test system: HOP-18 NSCLC
[16] = test system: HCC-2998 colon
[17] = test system: DLD-1 colon
[18] = test system: COLO 205 colon
[19] = test system: MOLT-4 leukemia
[20] = test system: RXF 393 renal
[21] = test system: SN12C renal
[22] = test system: A549 NSCLC
[23] = test system: KM20L2 colon
[24] = test system: KM12 colon
[25] = test system: M14 melanoma
[26] = test system: SNB-19 CNS
[27] = test system: NCI-H23 lung
[28] = test system: LXFL 529 NSCLC
[29] = test system: SNB-75 CNS
[30] = test system: EKVX NSCLC
[31] = test system: 786-0 renal
[32] = test system: OVCAR-8 ovarian
[33] = test system: HOP-62 NSCLC
[34] = test system: IGROV1 ovarian
[35] = test system: SK-MEL-28 melanoma
[36] = test system: SF-295 CNS
[37] = test system: SK-MEL-2 melanoma
[38] = test system: SNB-78 CNS
[39] = test system: HCT-15 colon
[40] = test system: OVCAR-5 ovarian
[41] = test system: RXF-631 renal
[42] = test system: HL-60(TB) leukemia
[43] = test system: DMS 114 small cell lung
[44] = test system: OVCAR-4 ovarian
[45] = test system: UO-31 renal

O=C1OC(c2cccc(C(F)(F)F)c2)c2ccc3ccccc3c21 (stereo unspecified)
inactive: GI50 [1] > 100 µM | GI50 [3] > 100 µM | GI50 [4] 5.19 µM | GI50 [6] > 100 µM | GI50 [7] > 100 µM | GI50 [8] > 100 µM | GI50 [9] > 100 µM | GI50 [10] 8.64 µM | GI50 [12] > 100 µM | GI50 [13] 25 µM | GI50 [14] > 100 µM | GI50 [15] > 100 µM | GI50 [16] > 100 µM | GI50 [18] > 100 µM | GI50 [19] 4.99 µM | GI50 [21] > 100 µM | GI50 [23] > 100 µM | GI50 [24] > 100 µM | GI50 [25] > 100 µM | GI50 [26] > 100 µM | GI50 [30] > 100 µM | GI50 [31] > 100 µM | GI50 [32] > 100 µM | GI50 [33] > 100 µM | GI50 [34] > 100 µM | GI50 [35] > 100 µM | GI50 [37] > 100 µM | GI50 [39] 6.21 µM | GI50 [40] > 100 µM | GI50 [41] > 100 µM | GI50 [44] > 100 µM
> 100 µM: TGI [1] | TGI [2] | TGI [3] | TGI [4] | TGI [5] | TGI [6] | TGI [7] | TGI [8] | TGI [9] | TGI [10] | TGI [11] | TGI [12] | TGI [13] | TGI [14] | TGI [15] | TGI [16] | TGI [17] | TGI [18] | TGI [19] | TGI [20] | TGI [21] | TGI [22] | TGI [23] | TGI [24] | TGI [25] | TGI [26] | TGI [27] | TGI [28] | TGI [29] | TGI [30] | TGI [31] | TGI [32] | TGI [33] | TGI [34] | TGI [35] | TGI [36] | TGI [37] | TGI [38] | TGI [39] | TGI [40] | TGI [41] | TGI [42] | TGI [43] | TGI [44] | TGI [45]
